Data from article PMC10721899, “The bactericidal and antibiofilm effects of a lysine-substituted hybrid peptide, CM-10K14K, on biofilm-forming Staphylococcus epidermidis” (Scientific Reports, 2023).
Counter-ions that a name gives are not always drawn. Ends that are not written are not given here.

Tests used:
[1] = tested on: S. epidermidis ATCC 35984 (biofilm-producer); assay: microbe, parasite or virus in culture; format: cell-based, Staphylococcus epidermidis; details: for MIC, minimum inhibitory concentration: MHB; for MBC, minimum bactericidal concentration: colony count from non-turbid MIC wells
Experimental: (§1) The S. epidermidis ATCC 35984 (biofilm-producer), Staphylococcus aureus ATCC 25923, Enterococcus faecalis ATCC 29219, Acinetobacter baumannii ATCC 19606, Klebsiella pneumoniae ATCC 27736 and Pseudomonas aeruginosa ATCC 27853 were grown overnight on trypticase soy agar (TSA; BD Bacto™), then subcultured in TSB and incubated at 37 °C for 16–18 h before each experiment. Stock bacterial cultures were kept frozen at − 80 °C in trypticase soy broth (TSB; BD Bacto™, USA) containing 20% glycerol.
(§2) The antimicrobial activity of peptides against S. epidermidis and five strains of both gram-positive and gram-negative bacteria frequently involved in catheter-related infections including S. aureus, E. faecalis, A. baumannii, K. pneumoniae, and P. aeruginosa was compared to that of vancomycin (Vancomycin hydrochloride, BioChemica, UK) using a modified version of the National Committee for Clinical Laboratory Standards (NCCLS) broth microdilution method. Two-fold serially diluted (0.98–250 µg/mL) aliquots of the peptides were prepared in type 1 water and added to sterile 96-well polypropylene microplates (Nunclon Delta-Treated; Thermo Scientific™, Denmark) in a volume of 50 µL, followed by the addition of 50 µL of bacterial suspensions (2–7 × 10^5 CFU/mL) in Mueller Hinton Broth (MHB; BD Difco™, USA). Uninoculated MHB and bacterial cultures without peptides were used as negative and positive controls, respectively. After culturing in an incubator shaker for 24 h at 37 °C, the lowest concentration at which the peptide inhibited bacterial growth as observed by visual inspection was taken as the minimal inhibitory concentration (MIC)[22]. Fifty microliter aliquots from each non-turbid well identified in the MIC experiment were plated on TSA for determination of minimal bactericidal concentration (MBC) by colony count assay. […] All experiments were performed in triplicate.

[2] = tested on: human red blood cells (hRBCs); assay: Hemolytic activity; format: cell-based; details: 1 h at 37 °C, relative to Triton-X control
Experimental: The quantity of hemoglobin released by treatment was used as a measure of a peptide’s hemolytic activity against human red blood cells (hRBCs)[23]. Venous blood was collected from a healthy volunteer in plastic blood collection tubes with lithium heparin (BD Vacutainer™, USA) and centrifuged at 2000×g for 5 min to separate the plasma and buffy coat. The hRBCs obtained were washed at least three times and diluted to 4% (vol/vol) in phosphate-buffered saline (PBS; Caisson Laboratories, USA). The same volume of the hRBC suspension (50 µL) was incubated with twofold, serially diluted concentrations (0.98–250 μg/mL) of peptide dissolved in PBS for 1 h at 37 °C. The hRBCs incubated in 0.1% Triton X-100 and PBS were used as positive (100% hemolysis) and negative (0% hemolysis) controls, respectively. The release of hemoglobin into the supernatants was monitored by measurement of absorbance at 405 nm using a Multiskan SkyHigh microplate reader (Thermo Scientific™, Singapore). The percentage of hemolysis was calculated as previously described.

[3] = tested on: S. epidermidis ATCC 35984; assay: Biofilm inhibition assay, crystal violet staining; format: cell-based, Staphylococcus epidermidis
Experimental: The biofilm biomass was assessed using crystal violet staining to determine the ability of peptides to inhibit bacterial formation of biofilm ^1. Overnight S. epidermidis cultures were adjusted to an OD620 of 0.1 in TSB. An equal volume (50 µL) of bacterial suspension (~10^8 CFU/mL) was incubated with 2-fold serially diluted peptides (0.98-250 μg/mL) at 37°C for 24 h in 96-well plates. Supernatants were discarded after incubation, and wells were gently rinsed at least twice with 0.85% NaCl to remove planktonic cells. Adherent biofilms were fixed for 30 minutes with 95% ethanol, then the fixative solution was removed. The fixed biofilms were dried thoroughly and stained with addition of 150 µL of 0.1% crystal violet (CV) to each well containing biofilm, along with its respective control media. After 15 min, CV solutions were removed and wells were gently rinsed three times with 400 μL of 0.85% NaCl without disturbing the biofilm. The plates were left to dry for 30 min before adding 200 μL of 95% ethanol to each well to solubilize the bound CV with vigorous pipetting. The biofilm mass was evaluated by observing OD at 570 nm using a Multiskan SkyHigh microplate reader ^2. Results were expressed as the percentage of biofilm mass compared to that of control.

[4] = tested on: L929 mouse fibroblast cells; assay: Cytotoxicity, MTT assay; format: cell-based; details: MTT, 24 h
Experimental: (§3) The cytotoxicity of the candidate peptide on L929 mouse fibroblast cell lines (NCTC clone 929) were evaluated using the 3-(4,5-dimethylthiazol-2-yl)-2,5-diphenyltetrazolium bromide (MTT) assay following the published protocol. L929 cells (3–5 × 10^4) in RPMI 1640 medium, supplemented with 10% (vol/vol) heat-inactivated fetal bovine serum, 2 mM L-glutamine, 0.2% (wt/vol) sodium bicarbonate, 100 U/mL penicillin and […] streptomycin were placed into each well of 96-well plates and incubated in 5% CO2 at 37 °C overnight. After removal of media, the two-fold serially diluted peptide was added to achieve final concentrations of 0.98–250 µg/mL. Plates were then incubated at 37 °C under 5% CO2 for 24 h. The RPMI 1640 medium with and without L929 seeded cells were used as positive and negative controls, respectively. After treatment, MTT (Sigma-Aldrich, USA) was added to a final concentration of 0.5 mg/mL and suspensions incubated for 4 h at 37 °C under 5% CO2. Supernatants from each well were then discarded, and 150 µl of dimethyl sulfoxide (DMSO; Fisher BioReagents™, UK) was added and gently mixed to dissolve the crystallized formazan. Absorbance was measured at 570 nm using a Multiskan SkyHigh microplate reader. Cell viability (%) was estimated according to the following formula: Cellviability%=AbsTreated-AbsBlank/AbsUntreated-AbsBlank×100

Cytotoxicity, MTT assay = format: cell-based, mouse; details: mouse, L929 mouse fibroblast cells (NCTC clone 929), L929, 24 h, read-out: cell viability
Experimental: as §3

[5] = tested on: Enterococcus faecalis ATCC 29219; format: cell-based
Experimental: as §1, §2

[6] = tested on: Pseudomonas aeruginosa ATCC 27853; format: cell-based
Experimental: as §1, §2

[7] = tested on: Acinetobacter baumannii ATCC 19606; format: cell-based
Experimental: as §1, §2

[8] = tested on: Staphylococcus aureus ATCC 25923; format: cell-based
Experimental: as §1, §2

[9] = tested on: Klebsiella pneumoniae ATCC 27736; format: cell-based
Experimental: as §1, §2

[10] = tested on: S. epidermidis ATCC 35984; assay: Biostability: growth inhibition in the presence of proteinase K; format: cell-based, Staphylococcus epidermidis; details: 0.01 mg/mL proteinase K
Experimental: Proteolysis of peptide by proteinase K was determined using the growth inhibition assay described by Jia et al.[28] with some modifications. […] After 6 and 24 h of incubation, the growth inhibitory effect was determined by measuring the absorbance at 620 nm using a Multiskan SkyHigh microplate reader. The percentage of relative survival rate was calculated as follows: Relativesurvivalrate%=AbsTreated/AbsUntreated×100 where AbsTreated was absorbance value of S. epidermidis cells after incubation with peptide in the presence of proteinase K, AbsUntreated was that of S. epidermidis cells incubated with ultrapure water in the presence of proteinase K.

KWKLFKKIGKVLKVL-NH2 [CM-10K, KWKLFKKIGKVLKVL-NH2]
MIC, minimum inhibitory concentration ([1]; 24 h at 37 °C): 3.91 µg/mL | MBC, minimum bactericidal concentration [1]: 7.81 µg/mL | HC50, concentration of peptide that causes 50% hemolysis [2]: 85.78 ± 9.01 µg/mL

CN[C@H](CC(C)C)C(=O)N[C@H]1C(=O)N[C@@H](CC(N)=O)C(=O)N[C@H]2C(=O)N[C@H]3C(=O)N[C@H](C(=O)N[C@H](C(=O)O)c4cc(O)cc(O)c4-c4cc3ccc4O)[C@H](O)c3ccc(c(Cl)c3)Oc3cc2cc(c3O[C@@H]2O[C@H](CO)[C@@H](O)[C@H](O)[C@H]2O[C@H]2C[C@](C)(N)[C@H](O)[C@H](C)O2)Oc2ccc(cc2Cl)[C@H]1O [Vancomycin, Vancomycin hydrochloride, reference compound]
MIC ([1]; Staphylococcus epidermidis, ATCC35984, MHB, 24 h at 37 °C, read-out: MIC, minimum inhibitory concentration): 3.91 µg/mL | MBC ([1]; Staphylococcus epidermidis, ATCC35984, colony count from non-turbid MIC wells, read-out: MBC, minimum bactericidal concentration): 7.81 µg/mL | effect on biofilm formation ([3]; at its MIC and MBC, 24 h): slightly induced biofilm formation | reduction of the biomass of biofilms ([3]; treatment with > 15.63 µg/mL for 24 h): more than 90%

KWKLFKKIGAVLKVLA-NH2 [CM-A, KWKLFKKIGAVLKVLA-NH2]
MIC, minimum inhibitory concentration ([1]; 24 h at 37 °C): 7.81 µg/mL | MBC, minimum bactericidal concentration [1]: 15.63 µg/mL | HC50, concentration of peptide that causes 50% hemolysis [2]: 42.58 ± 1.98 µg/mL

KWKLFKKIGKVLKKL-NH2 [CM-10K14K, KWKLFKKIGKVLKKL-NH2]
IC50 on L929 cells [4]: 56.53 ± 1.84 µg/mL | viability at 24 h (Cytotoxicity, MTT assay; at the MBC): 92.9 ± 1.82% | viability at 24 h, 3.91 μg/mL (Cytotoxicity, MTT assay; at the MIC): 100% | MIC, minimum inhibitory concentration ([1]; 24 h at 37 °C): 3.91 µg/mL | MBC, minimum bactericidal concentration [1]: 7.81 µg/mL | MBC [5]: 31.25 µg/mL | MIC [5]: 31.25 µg/mL | MBC [6]: 62.5 µg/mL | MIC [6]: 15.63 µg/mL | MBC [7]: 15.63 µg/mL | MIC [7]: 7.81 µg/mL | MBC [8]: 7.81 µg/mL | MIC [8]: 7.81 µg/mL | MBC [9]: 31.25 µg/mL | MIC [9]: 15.63 µg/mL | HC50, concentration of peptide that causes 50% hemolysis [2]: 561.90 ± 88.19 µg/mL

VWKLFKKIGKVLKKL-NH2 [CM-1V10K14K, VWKLFKKIGKVLKKL-NH2]
MIC, minimum inhibitory concentration ([1]; 24 h at 37 °C): 3.91 µg/mL | MBC, minimum bactericidal concentration [1]: 15.63 µg/mL | HC50, concentration of peptide that causes 50% hemolysis [2]: 118.90 ± 8.19 µg/mL

H-KWKLFKKIGAVLKVL-NH2 [C(1–7)M(2–9), KWKLFKKIGAVLKVL-NH2, reference compound]
antibacterial activity in the presence of proteinase K ([10]; 24-h incubation, CM-10K14K at 31.25 and 62.5 µg/mL): lost its ability to kill bacteria | concentration inhibiting bacterial growth in the presence of proteinase K ([10]; 6 h of incubation): at least its MIC | MIC, minimum inhibitory concentration ([1]; 24 h at 37 °C): 7.81 µg/mL | MBC, minimum bactericidal concentration [1]: 7.81 µg/mL | HC50, concentration of peptide that causes 50% hemolysis [2]: 88.89 ± 4.62 µg/mL

VWKLFKKIGAVLKKL-NH2 [CM-1V14K, VWKLFKKIGAVLKKL-NH2]
MIC, minimum inhibitory concentration ([1]; 24 h at 37 °C): 7.81 µg/mL | MBC, minimum bactericidal concentration [1]: 15.63 µg/mL | HC50, concentration of peptide that causes 50% hemolysis [2]: 131.70 ± 9.23 µg/mL
